Results on 3 compounds are retold here after ChEMBL document CHEMBL1130576, “Design and synthesis of a macrocyclic E-Selectin antagonist” (Bioorg Med Chem Lett, 1997).

The target in experiment [1] is T1, E-selectin (Homo sapiens) (UniProt P16581).
T1 sequence (whole entry): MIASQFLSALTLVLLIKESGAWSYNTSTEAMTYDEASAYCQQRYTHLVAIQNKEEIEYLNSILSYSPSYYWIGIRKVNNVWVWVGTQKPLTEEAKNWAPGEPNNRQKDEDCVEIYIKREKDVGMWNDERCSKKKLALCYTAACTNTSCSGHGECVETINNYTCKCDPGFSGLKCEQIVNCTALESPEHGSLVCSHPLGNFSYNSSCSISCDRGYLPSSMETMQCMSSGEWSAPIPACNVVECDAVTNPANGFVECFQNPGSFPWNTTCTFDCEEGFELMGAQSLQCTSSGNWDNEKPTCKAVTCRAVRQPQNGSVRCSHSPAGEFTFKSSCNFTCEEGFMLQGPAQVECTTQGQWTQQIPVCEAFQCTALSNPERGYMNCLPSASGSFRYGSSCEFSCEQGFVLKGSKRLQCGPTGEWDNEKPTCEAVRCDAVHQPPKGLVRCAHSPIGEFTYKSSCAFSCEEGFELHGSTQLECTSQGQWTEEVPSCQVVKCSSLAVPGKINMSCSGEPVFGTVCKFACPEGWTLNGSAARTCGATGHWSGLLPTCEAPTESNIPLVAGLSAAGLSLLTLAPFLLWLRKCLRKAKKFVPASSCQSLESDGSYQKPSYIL
Description: Compound was evaluated for in vitro affinity towards Selectin E, activity expressed as IC50 relative to Sialyl lewisX.

Experiment [2] has as its target T1, E-selectin (Homo sapiens). Description: Compound was evaluated for in vitro affinity towards Selectin E.

Compound `O=C1CC[C@@H]2O[C@@H](O[C@@H]3CCCC[C@H]3O[C@@H]3O[C@@H](CO)[C@H](O)[C@H](O[C@@H](Cc4ccccc4)C(=O)O)[C@H]3O1)[C@@H](O)[C@@H](O)[C@@H]2O` showed an RIC50 in experiment [1] of 2.8.
As to `COC(=O)CCCCCCCCO[C@@H]1O[C@@H](CO)[C@@H](O[C@@H]2O[C@@H](CO)[C@H](O)[C@H](O[C@]3(C(=O)O)C[C@@H](O)[C@@H](NC(C)=O)[C@H]([C@H](O)[C@H](O)CO)O3)[C@@H]2O)[C@H](O[C@@H]2O[C@@H](C)[C@@H](O)[C@H](O)[C@@H]2O)[C@@H]1NC(C)=O`, in experiment [2], the RIC50 amounted to 1.
Compound `O=C(O)CC[C@@H]1O[C@@H](O[C@@H]2CCCC[C@H]2O[C@@H]2O[C@@H](CO)[C@H](O)[C@H](O[C@@H](Cc3ccccc3)C(=O)O)[C@@H]2O)[C@@H](O)[C@@H](O)[C@@H]1O` came in with an RIC50 in experiment [1] of 0.39.
